Measured values from patent US20150353495A1 (PORTOLA PHARMACEUTICALS, INC., priority 2010, published 2015).

Tests used:
Format in all cases: biochemical
[1] = target: T1, JAK1 (Homo sapiens, UniProt P23458); assay: Z'-LYTE kinase assay JAK1
T1 construct: 5 μl of catalytic domain recombinant Kinase enzyme+Tyr peptide substrate (Invitrogen, CA); purchased Invitrogen
In short: (§1)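 Z′-LYTE FRET, Tyr6 peptide, recombinant catalytic domain + ATP, 1 h RT, 1% DMSO final, duplicates; protease development 1 h RT; fluorescence read.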

[2] = target: T2, JAK3 (Homo sapiens, UniProt P52333); assay: Z'-LYTE kinase assay JAK3
T2 construct: 5 μl of catalytic domain recombinant Kinase enzyme+Tyr peptide substrate (Invitrogen, CA); purchased Invitrogen
T2 sequence (P52333 822-1111 limits assumed): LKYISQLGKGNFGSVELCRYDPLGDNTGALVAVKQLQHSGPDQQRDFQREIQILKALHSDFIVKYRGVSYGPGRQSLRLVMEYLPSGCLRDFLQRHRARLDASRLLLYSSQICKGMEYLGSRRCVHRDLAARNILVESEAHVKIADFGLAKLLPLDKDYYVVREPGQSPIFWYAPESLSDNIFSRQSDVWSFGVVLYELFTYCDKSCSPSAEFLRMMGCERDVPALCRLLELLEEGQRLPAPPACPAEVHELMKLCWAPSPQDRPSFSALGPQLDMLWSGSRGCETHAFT
In short: as §1

[3] = target: T3, JAK2 (Homo sapiens, UniProt O60674); assay: Z'-LYTE kinase assay JAK2
T3 construct: 5 μl of catalytic domain recombinant Kinase enzyme+Tyr peptide substrate (Invitrogen, CA); purchased Invitrogen
T3 sequence (O60674 849-1124 limits assumed): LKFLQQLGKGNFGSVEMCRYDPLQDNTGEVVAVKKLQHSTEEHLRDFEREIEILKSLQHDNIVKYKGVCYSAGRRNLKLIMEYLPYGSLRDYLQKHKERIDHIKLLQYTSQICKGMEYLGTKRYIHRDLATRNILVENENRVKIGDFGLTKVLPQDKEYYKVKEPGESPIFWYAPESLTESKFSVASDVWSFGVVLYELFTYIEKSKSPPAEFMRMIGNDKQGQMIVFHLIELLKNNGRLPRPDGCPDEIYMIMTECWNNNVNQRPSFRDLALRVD
In short: as §1

T1 sequence (P23458 875-1153 limits assumed): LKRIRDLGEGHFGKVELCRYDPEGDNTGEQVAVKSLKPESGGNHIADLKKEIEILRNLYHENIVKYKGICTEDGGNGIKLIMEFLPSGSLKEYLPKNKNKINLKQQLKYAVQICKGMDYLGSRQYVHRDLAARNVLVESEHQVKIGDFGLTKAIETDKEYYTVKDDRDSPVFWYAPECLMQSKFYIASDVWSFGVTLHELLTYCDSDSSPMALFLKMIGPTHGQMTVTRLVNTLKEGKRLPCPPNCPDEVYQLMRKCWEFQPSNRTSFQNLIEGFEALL

SMILES	IC50 [1] [nM]	IC50 [2] [nM]	IC50 [3] [nM]
Cc1cc(Nc2cc(NCc3cccc4ccsc34)c(C(N)=O)cn2)ccc1C(=O)N1CCOCC1 [Example 459, 4-(benzo[b]thiophen-7-ylmethylamino)-6-(3-methyl-4-(morpholine-4-carbonyl)phenylamino)nicotinamide]	100 to 1000	1 to 10	10 to 100
Cc1cc(Nc2cc(NCc3cccc4[nH]ccc34)c(C(N)=O)cn2)ccc1C(=O)N1CCC1 [Example 460, 4-((1H-indol-4-yl)methylamino)-6-(4-(azetidine-1-carbonyl)-3-methylphenylamino)nicotinamide]	1 to 10	< 1	1 to 10
Cc1cc(Nc2cc(NCc3cccc4[nH]ccc34)c(C(N)=O)cn2)ccc1C(=O)N1CCOCC1 [Example 462, 4-((1H-indol-4-yl)methylamino)-6-(3-methyl-4-(morpholine-4-carbonyl)phenylamino)nicotinamide]	1 to 10	< 1	1 to 10
Cc1cc(Nc2cc(NCc3cccc4cc[nH]c34)c(C(N)=O)cn2)ccc1C(=O)N1CCC1 [Example 463, 4-((1H-indol-7-yl)methylamino)-6-(4-(azetidine-1-carbonyl)-3-methylphenylamino)nicotinamide]	> 1000	1 to 10	10 to 100
COC(=O)N(C)c1ccc(Nc2cc(NCc3cccc4ccsc34)c(C(N)=O)cn2)cc1 [Example 465, methyl 4-(4-(benzo[b]thiophen-7-ylmethylamino)-5-carbamoylpyridin-2-ylamino)phenyl(methyl)carbamate]	> 1000	1 to 10	100 to 1000
CCC(=O)N(C)c1ccc(Nc2cc(NCc3cccc4ccsc34)c(C(N)=O)cn2)cc1 [Example 466, 4-(benzo[b]thiophen-7-ylmethylamino)-6-(4-(N-methylpropionamido)phenylamino)nicotinamide]	100 to 1000	1 to 10	100 to 1000
CN(C(=O)C1CC1)c1ccc(Nc2cc(NCc3cccc4ccsc34)c(C(N)=O)cn2)cc1 [Example 467, 4-(benzo[b]thiophen-7-ylmethylamino)-6-(4-(N-methylcyclopropanecarboxamido)phenylamino)nicotinamide]	100 to 1000	10 to 100	100 to 1000
CC(=O)N(C)c1ccc(Nc2cc(NCc3cccc4ccsc34)c(C(N)=O)cn2)cc1 [Example 468, 4-(benzo[b]thiophen-7-ylmethylamino)-6-(4-(N-methylacetamido)phenylamino)nicotinamide]	100 to 1000	1 to 10	10 to 100
CC(=O)N(C)c1ccc(Nc2cc(NCc3cccc4[nH]ccc34)c(C(N)=O)cn2)cc1 [Example 469, 4-((1H-indol-4-yl)methylamino)-6-(4-(N-methylacetamido)phenylamino)nicotinamide]	10 to 100	1 to 10	10 to 100
CC(=O)N(C)c1ccc(Nc2cc(NCc3cccc4cc[nH]c34)c(C(N)=O)cn2)cc1 [Example 470, 4-((1H-indol-7-yl)methylamino)-6-(4-(N-methylacetamido)phenylamino)nicotinamide]	> 1000	10 to 100	100 to 1000
CC(=O)Nc1ccc(Nc2cc(NCc3cccc4ccsc34)c(C(N)=O)cn2)cc1 [Example 471, 6-(4-acetamidophenylamino)-4-(benzo[b]thiophen-7-ylmethylamino)nicotinamide]	10 to 100	1 to 10	10 to 100
CC(=O)Nc1ccc(Nc2cc(NCc3cccc4[nH]ccc34)c(C(N)=O)cn2)cc1 [Example 472, 4-((1H-indol-4-yl)methylamino)-6-(4-acetamidophenylamino)nicotinamide]	1 to 10	< 1	10 to 100
CC(=O)Nc1ccc(Nc2cc(NCc3cccc4cc[nH]c34)c(C(N)=O)cn2)cc1 [Example 473, 4-((1H-indol-7-yl)methylamino)-6-(4-acetamidophenylamino)nicotinamide]	100 to 1000	10 to 100	100 to 1000
COC(=O)N(C)c1ccc(Nc2cc(NCc3cccc4[nH]ccc34)c(C(N)=O)cn2)cc1 [Example 474, methyl 4-(4-((1H-indol-4-yl)methylamino)-5-carbamoylpyridin-2-ylamino)phenyl(methyl)carbamate]	10 to 100	1 to 10	10 to 100
CCC(=O)N(C)c1ccc(Nc2cc(NCc3cccc4[nH]ccc34)c(C(N)=O)cn2)cc1 [Example 475, 4-((1H-indol-4-yl)methylamino)-6-(4-(N-methylpropionamido)phenylamino)nicotinamide]	10 to 100	1 to 10	10 to 100
CN(C(=O)C1CC1)c1ccc(Nc2cc(NCc3cccc4[nH]ccc34)c(C(N)=O)cn2)cc1 [Example 476, 4-((1H-indol-4-yl)methylamino)-6-(4-(N-methylcyclopropanecarboxamido)phenylamino)nicotinamide]	10 to 100	1 to 10	10 to 100
CCC(=O)N(C)c1ccc(Nc2cc(NCc3cccc4cc[nH]c34)c(C(N)=O)cn2)cc1 [Example 477, 4-((1H-indol-7-yl)methylamino)-6-(4-(N-methylpropionamido)phenylamino)nicotinamide]	> 1000	10 to 100	100 to 1000
CN(C(=O)C1CC1)c1ccc(Nc2cc(NCc3cccc4cc[nH]c34)c(C(N)=O)cn2)cc1 [Example 478, 4-((1H-indol-7-yl)methylamino)-6-(4-(N-methylcyclopropanecarboxamido)phenylamino)nicotinamide]	> 1000	100 to 1000	100 to 1000
COC(=O)N(C)c1ccc(Nc2cc(NCc3cncc(F)c3)c(C(N)=O)cn2)cc1 [Example 479]	100 to 1000	10 to 100	100 to 1000
CCC(=O)N(C)c1ccc(Nc2cc(NCc3cncc(F)c3)c(C(N)=O)cn2)cc1 [Example 480, 4-((5-fluoropyridin-3-yl)methylamino)-6-(4-(N-methylpropionamido)phenylamino)nicotinamide]	> 1000	10 to 100	100 to 1000
CN(C(=O)C1CC1)c1ccc(Nc2cc(NCc3cncc(F)c3)c(C(N)=O)cn2)cc1 [Example 481, 4-((5-fluoropyridin-3-yl)methylamino)-6-(4-(N-methylcyclopropanecarboxamido)phenylamino)nicotinamide]	100 to 1000	10 to 100	100 to 1000
COC(=O)N(C)c1ccc(Nc2cc(NCc3cccc4cc[nH]c34)c(C(N)=O)cn2)cc1 [Example 482, methyl 4-(4-((1H-indol-7-yl)methylamino)-5-carbamoylpyridin-2-ylamino)phenyl(methyl)carbamate]	> 1000	10 to 100	> 1000
CC(=O)N(C)c1ccc(Nc2cc(NCc3cncc(F)c3)c(C(N)=O)cn2)cc1 [Example 483, 4-((5-fluoropyridin-3-yl)methylamino)-6-(4-(N-methylacetamido)phenylamino)nicotinamide]	> 1000	10 to 100	100 to 1000
CC(=O)Nc1ccc(Nc2cc(NCc3cncc(F)c3)c(C(N)=O)cn2)cc1 [Example 484, 6-(4-acetamidophenylamino)-4-((5-fluoropyridin-3-yl)methylamino)nicotinamide]	100 to 1000	1 to 10	100 to 1000
